Literature values, collected in US20230149295A1, “INFLAMMATORY BOWEL DISEASE STEM CELLS, AGENTS WHICH TARGET IBD STEM CELLS, AND USES RELATED THERETO” (University of Houston System, priority 2020, published 2023).

Legend:
STAT3 = STAT3 (Homo sapiens, UniProt P40763); settings: cell-free assays; read-out: IC50 for inhibition of STAT3 activation and nuclear translocation
STAT1 = target: T1, STAT1 (Homo sapiens, UniProt P42224); settings: cell-free assays
T1 sequence (P42224 1-750): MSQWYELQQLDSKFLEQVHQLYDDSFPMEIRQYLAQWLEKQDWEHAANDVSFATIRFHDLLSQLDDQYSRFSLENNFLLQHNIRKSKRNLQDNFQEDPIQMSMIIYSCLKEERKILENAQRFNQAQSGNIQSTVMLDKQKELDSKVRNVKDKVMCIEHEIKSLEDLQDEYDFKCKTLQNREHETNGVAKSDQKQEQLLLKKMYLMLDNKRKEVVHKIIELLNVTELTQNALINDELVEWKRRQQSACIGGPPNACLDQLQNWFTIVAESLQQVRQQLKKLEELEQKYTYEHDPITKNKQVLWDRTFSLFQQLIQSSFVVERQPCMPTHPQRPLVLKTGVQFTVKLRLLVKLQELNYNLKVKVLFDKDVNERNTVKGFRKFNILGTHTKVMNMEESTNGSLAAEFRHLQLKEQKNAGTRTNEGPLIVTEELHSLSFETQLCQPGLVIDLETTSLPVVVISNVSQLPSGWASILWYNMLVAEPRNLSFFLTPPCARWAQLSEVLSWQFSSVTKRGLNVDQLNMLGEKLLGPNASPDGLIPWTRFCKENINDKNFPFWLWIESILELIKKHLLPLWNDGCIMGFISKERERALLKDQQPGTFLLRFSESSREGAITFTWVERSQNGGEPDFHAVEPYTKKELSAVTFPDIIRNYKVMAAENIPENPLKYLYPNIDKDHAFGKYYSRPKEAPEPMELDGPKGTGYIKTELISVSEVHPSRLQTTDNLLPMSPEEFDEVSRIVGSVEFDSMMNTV

Chain of STAT3 (P40763 whole entry, species assumed): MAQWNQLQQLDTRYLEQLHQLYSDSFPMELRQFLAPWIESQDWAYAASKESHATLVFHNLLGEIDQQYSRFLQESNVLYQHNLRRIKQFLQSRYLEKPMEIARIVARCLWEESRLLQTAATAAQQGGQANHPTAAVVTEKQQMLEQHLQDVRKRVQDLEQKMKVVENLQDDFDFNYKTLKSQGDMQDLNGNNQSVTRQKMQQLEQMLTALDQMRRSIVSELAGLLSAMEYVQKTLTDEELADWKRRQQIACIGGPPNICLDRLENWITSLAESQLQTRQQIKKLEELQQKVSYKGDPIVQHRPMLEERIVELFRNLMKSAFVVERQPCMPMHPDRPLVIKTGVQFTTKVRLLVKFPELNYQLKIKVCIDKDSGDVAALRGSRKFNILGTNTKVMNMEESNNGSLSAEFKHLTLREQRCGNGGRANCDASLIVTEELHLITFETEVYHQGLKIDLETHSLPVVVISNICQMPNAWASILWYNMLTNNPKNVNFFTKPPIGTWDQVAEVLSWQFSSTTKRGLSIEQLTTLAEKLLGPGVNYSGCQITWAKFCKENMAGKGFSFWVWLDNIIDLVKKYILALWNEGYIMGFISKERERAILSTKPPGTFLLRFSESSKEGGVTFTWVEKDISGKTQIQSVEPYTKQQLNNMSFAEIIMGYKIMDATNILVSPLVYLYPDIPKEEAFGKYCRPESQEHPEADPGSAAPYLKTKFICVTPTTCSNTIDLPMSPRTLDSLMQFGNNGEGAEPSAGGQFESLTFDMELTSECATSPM

SMILES | inhibition of ERBB2 phosphorylation (T7981) (ERBB2) | IC50 (STAT3) [µM] | selectivity for STAT3 over STAT1 (STAT1)
C=CC(=O)Nc1cccc(Sc2nc(Nc3ccc(N4CCN(C)CC4)cc3)ncc2Cl)c1 [WZ8040] | does not inhibit | – | –
O=[N+]([O-])c1ccc2c(c1)S(=O)(=O)C=C2 [Stattic] | – | 5.1 | highly selectivity over STAT1
